Biological target: T1, ER beta receptor (Homo sapiens, UniProt Q92731)
T1 construct: purchased PanVera
Assay: Competition ER binding assay (3H-Estradiol displacement)
Settings: for Ratio of Ki(nM)ER alpha/Ki(nM) ER beta: selectivity ratio Ki ER alpha / Ki ER beta, Ki from IC50 by Cheng-Prusoff, 3H-Estradiol, ERAlpha or ERbeta Receptor (PanVera)
Protocol: The competition ER binding assay was run in a buffer containing 50 mM N-[2-hydroxyethyl]piperazine-N′-[2-ethanesulfonic acid (Hepes) pH 7.5, 1.5 mM EDTA, 150 mM NaCl, 10% glycerol, 1 mg/mL ovalbumin, 5 mM DTT, 0.025 μCi per well of ^3H-Estradiol(NEN #NET517 at 118 Ci/mmol, 1 mCi/mL), and 10 ng/well ERAlpha or ERbeta Receptor (PanVera). Competing compounds were added at 10 different concentrations. Non-specific binding was determined in the presence of 1 μM of E2 (17-β Estradiol, Sigma, St. Louis, Mo.). The binding reaction (140 μL) was incubated for 4 hours at room temperature, then 70 μL of cold dextran coated charcoal (DCC) buffer was added to each reaction (DCC buffer was prepared by adding 0.75 g of charcoal[Sigma] and 0.25 g of dextran [Pharmacia] per 50 mL of assay buffer). The incubation plates were mixed for 8 minutes on an orbital shaker at 4° C. and then centrifuged at 3,000 rpm for 10 minutes at 4° C. An aliquot of 120 μl of the mix was transferred to another 96-well, white flat bottom plate (Costar) and 175 μl of Wallac Optiphase Hisafe 3 scintillation fluid was added to each well. The plates were sealed and then shaken vigorously on an orbital shaker. After an incubation of 2.5 hrs, the radioactivity was counted in a Wallac Microbeta counter. […] The Kd for ^3H-Estradiol was determined by saturation binding to ERα and ERβ receptors. The IC50 values for compounds were converted to Ki values using the Cheng-Prusoff equation and the Kd values were determined by saturation binding assay.

T1 sequence (Q92731 whole entry): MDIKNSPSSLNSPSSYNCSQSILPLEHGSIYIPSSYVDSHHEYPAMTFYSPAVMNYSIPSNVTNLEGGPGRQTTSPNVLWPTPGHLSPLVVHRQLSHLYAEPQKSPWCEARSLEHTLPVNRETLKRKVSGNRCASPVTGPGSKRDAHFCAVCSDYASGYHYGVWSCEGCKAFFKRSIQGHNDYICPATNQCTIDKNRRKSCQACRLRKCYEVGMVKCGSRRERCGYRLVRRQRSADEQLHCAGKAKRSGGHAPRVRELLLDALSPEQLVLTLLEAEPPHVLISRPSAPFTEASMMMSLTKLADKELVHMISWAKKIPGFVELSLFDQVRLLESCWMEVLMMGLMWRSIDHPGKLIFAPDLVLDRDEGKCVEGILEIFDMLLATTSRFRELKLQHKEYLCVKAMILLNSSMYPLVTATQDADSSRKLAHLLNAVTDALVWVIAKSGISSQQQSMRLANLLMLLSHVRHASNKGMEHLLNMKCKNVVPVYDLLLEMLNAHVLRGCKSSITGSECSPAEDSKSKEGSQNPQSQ

| activity in the ER binding assay | Ratio of Ki(nM)ER alpha/Ki(nM) ER beta | SMILES |
| --- | --- | --- |
| active | 5.0 | Oc1ccc2c(c1)[C@H]1CCC[C@H]1[C@@H](c1ccc(F)cc1)O2 (racemic) [Example 2, (±)-2-(4-Fluorophenyl)-6-hydroxy-cyclopentyl[c]3,4-dihydro-2H-1-benzopyran] |
| active | 2.6 | CCc1ccc([C@H]2Oc3ccc(O)cc3[C@H]3CCC[C@H]32)cc1 (racemic) [Example 3, (±)-2-(4-ethylphenyl)-6-hydroxy-cyclopentyl[c]3,4-dihydro-2H-1-benzopyran] |
| active | 6.9 | Oc1ccc2c(c1)[C@H]1CCC[C@H]1[C@@H](c1ccc(C(F)(F)F)cc1)O2 (racemic) [Example 4, (±)-2-(4-Trifluoromethylphenyl)-6-hydroxy-cyclopentyl[c]3,4-dihydro-2H-1-benzopyran] |
| active | 12.6 | Cc1ccc([C@H]2Oc3ccc(O)cc3[C@H]3CCC[C@H]32)cc1 (racemic) [Example 6, (±)-2-(4-Methylphenyl)-6-hydroxy-cyclopentyl[c]3,4-dihydro-2H-1-benzopyran] |

Reference: US6630508B1, “Substituted benzopyrans as selective estrogen receptor β agonists” (Eli Lilly and Company, priority 2002, dated 2003)
